The results in this text go back to patent US12391671B2, “Allosteric EGFR inhibitors and methods of use thereof” (Dana-Farber Cancer Institute, Inc., priority 2019, dated 2025).

Structures can show the parent of a compound that is named as a salt. Where two headings read alike, the source gives them in different places.

One test addresses EGFR L858R/T790M (Homo sapiens (Human), UniProt P00533, L858R/T790M). Put plainly: HTRF-based EGFR biochemical assay (L858R/T790M). The conditions noted are these: 100 μM ATP, enzyme 0.02 nM. As to the method:
(§1) Example 25: HTRF-Based EGFR Biochemical Assays
(§2) EGFR biochemical activity measurements were carried out using the homogeneous time-resolved fluorescence (HTRF) assay (Cisbio), inhibitors and DMSO normalizations were first dispensed to empty black low-volume 384-well plates (Corning) with 0300 digital liquid dispenser (HP). All reactions were carried out at room temperature and solutions were added to plates with a Multidrop Combi Reagent Dispenser (ThermoFisher). The reaction mixture (10 μL final volume) contained 1 μM tyrosine kinase peptide-biotin substrate and mutant EGFR in a reaction buffer (50 mM HEPES pH 7.0, 5 mM MgCl2, 1 mM MnCl2, 0.01% BSA, 2 mM TCEP, 0.1 mM NaVO4). Enzyme concentrations were adjusted to accommodate varying kinase activities (L858R 0.1 nM, L858R/T790M 0.02 nM). Enzyme reaction solution (2× concentrations, 5 μL) was added to 384-well plates containing compounds and incubated for 30 mins. Enzyme reactions were initiated with the addition of 5 μL of ATP to a final concentration of 100 μM and reacted for 20 mins. Reactions were quenched with the addition of 10 μL of phospho-tyrosine antibody-Europium(III) cryptate (1-to-180 volume ratio) and Streptavidin-XL665 (46.7 nM) in EDTA-containing detection buffer, then incubated at room temperature for 1 hour, and read with a PHERAstar plate reader (excitation=337 nm, emission=620 nm and 665 nm).

Another test deals with EGFR L858R (Homo sapiens (Human), UniProt P00533, L858R). Put plainly: HTRF-based EGFR biochemical assay (L858R). Particulars: 100 μM ATP, enzyme 0.1 nM. The procedure: as §1, §2
Chain of EGFR L858R (P00533 25-1210 L858R): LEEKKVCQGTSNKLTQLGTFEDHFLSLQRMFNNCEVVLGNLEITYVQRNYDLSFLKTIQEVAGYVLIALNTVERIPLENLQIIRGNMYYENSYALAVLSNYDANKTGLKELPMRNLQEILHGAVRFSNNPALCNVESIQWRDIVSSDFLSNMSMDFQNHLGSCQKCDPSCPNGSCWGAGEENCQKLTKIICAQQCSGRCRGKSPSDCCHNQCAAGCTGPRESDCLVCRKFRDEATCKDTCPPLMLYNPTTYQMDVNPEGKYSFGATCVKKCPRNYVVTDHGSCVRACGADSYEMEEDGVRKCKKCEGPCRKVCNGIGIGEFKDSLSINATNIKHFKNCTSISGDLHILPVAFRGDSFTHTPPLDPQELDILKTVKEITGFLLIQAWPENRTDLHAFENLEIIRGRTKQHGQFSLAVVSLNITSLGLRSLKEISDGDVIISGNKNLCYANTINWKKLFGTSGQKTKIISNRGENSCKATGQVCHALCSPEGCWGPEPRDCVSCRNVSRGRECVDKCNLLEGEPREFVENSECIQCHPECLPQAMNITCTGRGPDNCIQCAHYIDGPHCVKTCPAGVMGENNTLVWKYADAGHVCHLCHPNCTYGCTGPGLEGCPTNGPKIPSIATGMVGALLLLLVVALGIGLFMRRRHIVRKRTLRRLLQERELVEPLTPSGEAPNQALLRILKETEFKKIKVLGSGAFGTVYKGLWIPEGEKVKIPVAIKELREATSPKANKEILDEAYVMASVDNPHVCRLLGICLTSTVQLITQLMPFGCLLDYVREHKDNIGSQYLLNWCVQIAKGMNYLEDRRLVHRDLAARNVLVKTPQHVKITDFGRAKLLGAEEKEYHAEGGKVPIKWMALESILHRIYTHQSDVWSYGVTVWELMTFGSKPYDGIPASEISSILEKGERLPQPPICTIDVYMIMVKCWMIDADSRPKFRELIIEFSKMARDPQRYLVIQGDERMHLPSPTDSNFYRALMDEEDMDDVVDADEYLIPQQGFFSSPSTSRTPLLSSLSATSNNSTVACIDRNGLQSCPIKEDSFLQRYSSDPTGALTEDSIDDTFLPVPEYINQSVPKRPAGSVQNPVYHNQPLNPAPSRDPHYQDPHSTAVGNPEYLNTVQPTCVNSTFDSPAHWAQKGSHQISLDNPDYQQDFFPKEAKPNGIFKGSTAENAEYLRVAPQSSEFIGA
The test system of test [1] is EGFR mutant L858R/T790M Ba/F3 cells. Put plainly: Ba/F3 cell proliferation model (Cell Titer Glo), EGFR L858R/T790M. The class given is cell-based, murine. Particulars: 72 hours. An excerpt:
Example 26: Ba/F3 Cell Proliferation Models
The EGFR mutant L858R and L858R/T790M Ba/F3 cells have been previously described (Zhou, W., et al. Nature 462, 2009, 1070-1074). All cell lines were maintained in RPM 1640 (Cellgro; Mediatech Inc., Herndon. CA) supplemented with 10% FBS, 100 units/mL penicillin, 100 units/mL streptomycin. The EGFR I941R mutation was introduced via site directed mutagenesis using the Quick Change Site-Directed Mutagenesis kit (Stratagene; La Jolla, CA) according to the manufacturer's instructions. All constructs were confirmed by DNA sequencing. The constructs were shuttled into the retroviral vector JP1540 using the Cre-recombination system (Agilent Technologies, Santa Clara, CA). Ba/F3 cells were then infected with retrovirus per standard protocols, as described previously (Zhou, et al, Nature 2009). Stable clones were obtained by selection in puromycin (2 μg/ml).
Growth and inhibition of growth was assessed by the Cell Titer Glo® assay (Promega, Madison, WI) and was performed according to the manufacturer's instructions. The Cell Titer Glo® assay is a luminescence-based method used to determine the number of viable cells based on quantitation of the ATP present, which is directly proportional to the amount of metabolically active cells present. Ba/F3 cells of different EGFR genotypes were exposed to compounds as a single agent or in combination with 1 μg/mL cetuximab for 72 hours and the number of cells used per experiment was determined empirically as has been previously established (Zhou, et al., Nature 2009). All experimental points were set up in triplicates in 384-well plates and all experiments were repeated at least three times. […] The curves were fitted using a non-linear regression model with a sigmoidal dose response.
(In general: In ATP-based viability assays light output follows the ATP content of the culture.)

The mark [2] stands for this setting: Mus musculus, BaF3, single agent, read-out: Cell IC50 BaF3 EGFR L858R/T790M.
Setting [3] is: in combination with 1 μg/mL cetuximab, read-out: Cell IC50 BaF3 EGFR L858R/T790M (+cetux.).

Chain of EGFR L858R/T790M (P00533 25-1210 T790M/L858R): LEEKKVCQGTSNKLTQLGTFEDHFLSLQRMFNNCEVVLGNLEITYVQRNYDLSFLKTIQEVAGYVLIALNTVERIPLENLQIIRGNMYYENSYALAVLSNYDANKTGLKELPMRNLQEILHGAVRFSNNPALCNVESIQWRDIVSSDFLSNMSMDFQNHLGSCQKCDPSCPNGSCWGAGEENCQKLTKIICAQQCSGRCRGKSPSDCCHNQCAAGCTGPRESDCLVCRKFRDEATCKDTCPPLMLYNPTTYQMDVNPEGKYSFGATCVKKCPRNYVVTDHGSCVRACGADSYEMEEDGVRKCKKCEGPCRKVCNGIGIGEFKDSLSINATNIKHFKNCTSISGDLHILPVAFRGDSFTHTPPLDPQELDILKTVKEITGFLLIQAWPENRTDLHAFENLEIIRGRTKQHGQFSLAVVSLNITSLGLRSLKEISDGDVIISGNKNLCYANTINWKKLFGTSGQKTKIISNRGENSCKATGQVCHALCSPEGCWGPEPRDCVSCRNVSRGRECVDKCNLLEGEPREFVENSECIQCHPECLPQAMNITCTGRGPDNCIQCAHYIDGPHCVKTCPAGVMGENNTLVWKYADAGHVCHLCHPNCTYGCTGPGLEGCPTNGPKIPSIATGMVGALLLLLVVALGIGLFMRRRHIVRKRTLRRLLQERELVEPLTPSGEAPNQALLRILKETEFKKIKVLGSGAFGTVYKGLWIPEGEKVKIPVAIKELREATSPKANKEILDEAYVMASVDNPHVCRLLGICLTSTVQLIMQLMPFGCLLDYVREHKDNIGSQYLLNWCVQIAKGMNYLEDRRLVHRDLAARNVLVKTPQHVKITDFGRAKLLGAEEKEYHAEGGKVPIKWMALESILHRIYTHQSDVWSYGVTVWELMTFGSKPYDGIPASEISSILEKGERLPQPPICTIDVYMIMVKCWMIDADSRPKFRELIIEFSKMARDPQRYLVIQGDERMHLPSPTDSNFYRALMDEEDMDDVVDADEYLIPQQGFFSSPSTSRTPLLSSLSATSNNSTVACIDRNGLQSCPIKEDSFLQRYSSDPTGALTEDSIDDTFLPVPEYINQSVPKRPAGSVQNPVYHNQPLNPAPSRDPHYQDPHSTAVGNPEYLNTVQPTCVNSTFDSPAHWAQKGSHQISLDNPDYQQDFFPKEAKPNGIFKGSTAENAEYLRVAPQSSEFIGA

As for `CN1CCC(c2ccc(-c3ccc4c(c3)C(=O)N([C@H](c3nc5ccccc5[nH]3)c3cc(F)ccc3O)C4)cc2)CC1` (single isomer, unassigned) [Compound 037], the values for the IC50 on EGFR L858R/T790M and against EGFR L858R were 0.5 nM and 1.4 nM, respectively.

As to `[2H]C(c1nc2ccccc2[nH]1)(c1cc(F)ccc1O)n1ccc2cc(-c3ccc(C4CCN(C)CC4)cc3)ccc2c1=O` (stereo not drawn) [Compound 112, 2-[1H-Benzimidazol-2-yl-deuterio-(5-fluoro-2-hydroxy-phenyl)methyl]-6-[4-(1-methyl-4-piperidyl)phenyl]isoquinolin-1-one], the IC50 stood at 2 nM at EGFR L858R/T790M and 3 nM on EGFR L858R.

As for `Cc1c[nH]c([C@@H](c2cc(F)ccc2O)N2Cc3ccc(-c4ccc(C5CCN(C)CC5)cc4)c(F)c3C2=O)n1` (single isomer, unassigned) [Compound 94], the IC50 against EGFR L858R/T790M stood at 2 nM; at EGFR L858R, 1 nM.

On to `O=C1c2cc(-c3ccc(N4CCNCC4)cc3)ccc2CN1C(c1nc2ccccc2[nH]1)c1cc(F)ccc1O` (stereo not drawn) [Compound 021, 2-[1H-Benzimidazol-2-yl-(5-fluoro-2-hydroxy-phenyl)methyl]-6-(4-piperazin-1-yiphenyl)isoindolin-1-one;hydrochioride], for which the IC50 in test [1] (setting [2]) is 1650 nM; in test [1] (setting [3]), 20 nM.

In the case of `CN1CCC(c2ccc(-c3ccc4c(=O)n([C@H](c5nc6ccccc6[nH]5)c5cc(F)ccc5O)ccc4c3)cc2)CC1` (single isomer, unassigned) [Compound 115], the IC50 against EGFR L858R/T790M is 157 nM; at EGFR L858R, 132 nM.

`CN1CCC(c2ccc(-c3ccc4c(c3)C(=S)N([C@H](c3nc5ccccc5[nH]3)c3cc(F)ccc3O)C4)cc2)CC1` (single isomer, unassigned) [Compound 084]: the IC50 was determined as 232 nM against EGFR L858R/T790M and 219 nM at EGFR L858R.

Take `CN1CCC2(c3ccc(-c4cc(F)c5c(=O)n(C(c6nc7ccccc7[nH]6)c6cc(F)ccc6O)ccc5c4)cc3)CC2C1` (stereo not drawn) [Compound 110, 2-[1H-Benzimidazol-2-yl-(5-fluoro-2-hydroxy-phenyl)methyl]-8-fluoro-6-4-(3-methyl-3-azabicyclo[4.1.0]-heptan-6-yl)phenyl]isoquinolin-1-one; dihydrochloride]: the figures for the IC50 on EGFR L858R/T790M and on EGFR L858R were 0.6 nM and 3 nM, respectively.

In the case of `[2H]C(c1nc2ccccc2[nH]1)(c1cc(F)ccc1O)n1ccc2cc(-c3ccc(C4CCN(C)CC4)cc3)cc(F)c2c1=O` (stereo not drawn) [Compound 113, 2-[1H-Benzimidazol-2-yl-deuterio-(5-fluoro-2-hydroxy-phenyl)methyl]-8-fluoro-6-[4-(1-methyl-4-piperidyl)phenyl]isoquinolin-1-one], the figures for the IC50 against EGFR L858R/T790M and against EGFR L858R were 4 nM and 14 nM, respectively.

With `Cc1c[nH]c([C@@H](c2cc(F)ccc2O)N2Cc3ccc(-c4ccc(C5CCN(C)CC5)cc4)cc3C2=O)n1` (single isomer, unassigned) [Compound 104], the IC50 against EGFR L858R/T790M amounted to 2 nM; against EGFR L858R it was 1 nM.

As for `CN1CCC(c2ccc(-c3ccc4c(c3)C(=O)N(C(c3nc5ccccc5[nH]3)c3cccc(Cl)c3O)C4)cc2)CC1` (stereo not drawn) [Compound 043, 2-[1H-benzimidazol-2-yl-(3-chloro-2-hydroxy-phenyl)-methyl]-6-[4-(1-methyl-4-piperidyl)phenyl]isoindolin-1-one; dihydrochloride], the results for the IC50 in test [1] (setting [2]) and in test [1] (setting [3]) were 4940 nM and 580 nM, respectively.

Take `[2H][C@](c1nc2ccccc2[nH]1)(c1cc(F)ccc1O)N1Cc2ccc(-c3ccc(C4CCN(C)CC4)cc3)cc2C1=O` (single isomer, unassigned) [Compound 038]: the IC50 was determined as 930 nM in test [1] (setting [2]) and 41 nM in test [1] (setting [3]).

As to `[2H][C@@](c1nc2ccccc2[nH]1)(c1cc(F)ccc1O)N1Cc2ccc(-c3ccc(C4CCN(C)CC4)cc3)cc2C1=O` (single isomer, unassigned) [Compound 037], the figures for the IC50 in test [1] (setting [2]) and in test [1] (setting [3]) were 160 nM and 4 nM, respectively.
